Key:
[1] = target: Human immunodeficiency virus type 1 protease (Human immunodeficiency virus 1, UniProt Q72874); assay: In vitro inhibition of recombinant HIV-1 protease expressed in Escherichia coli strain D1210
[2] = target: T1, Human rhinovirus A protease (Human rhinovirus sp.) (UniProt Q4U254); conditions: Human immunodeficiency virus 2
T1 sequence (whole entry): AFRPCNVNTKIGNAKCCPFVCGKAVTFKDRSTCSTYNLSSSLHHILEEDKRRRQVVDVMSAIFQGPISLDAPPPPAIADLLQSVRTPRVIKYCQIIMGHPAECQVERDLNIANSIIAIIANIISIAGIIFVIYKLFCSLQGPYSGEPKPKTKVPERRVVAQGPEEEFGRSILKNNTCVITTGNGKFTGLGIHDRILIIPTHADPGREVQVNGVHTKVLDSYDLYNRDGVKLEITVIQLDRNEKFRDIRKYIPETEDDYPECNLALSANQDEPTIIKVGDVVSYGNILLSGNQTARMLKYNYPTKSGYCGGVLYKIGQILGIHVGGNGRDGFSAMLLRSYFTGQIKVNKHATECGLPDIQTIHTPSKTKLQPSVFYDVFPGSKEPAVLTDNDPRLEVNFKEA

[3] = target: Human immunodeficiency virus type 1 protease (Human immunodeficiency virus 1) (UniProt Q72874)
Description: The irreversibility of the inactivation reaction of HIV-1 PR was assessed

Structure (SMILES) | IC50 [1] [µM] | K inact [2] [min⁻¹] | K inact [3] [min⁻¹]
O=C(C#CCN1CCC(O)(c2ccc(Cl)cc2)CC1)c1cccc(-c2ccccc2)c1 | 63 | – | –
O=C(/C=C/CN1CCC(O)(c2ccc(Cl)cc2)CC1)c1ccc(F)cc1 | 80 | – | –
O=C(C#CCN1CCC(O)(c2ccc(Cl)cc2)CC1)c1ccccc1 | 20 | – | –
OC1(c2ccc(Cl)cc2)CCN(CC#CC2(c3ccccc3)CO2)CC1 (centres undefined) | 150 | – | –
O=C(/C=C/C[N+]1([O-])CCC(O)(c2ccc(Cl)cc2)CC1)c1ccc(F)cc1 (centres undefined) | 30 | 4.33 | 86
O=C(C#CCN1CCC(O)(c2ccc(Cl)cc2)CC1)c1ccc(-c2ccccc2)cc1 | 100 | – | –
OC1(C#CC2(c3ccccc3)CO2)CCN(Cc2ccccc2)CC1 (centres undefined) | 725 | – | –

From ChEMBL document CHEMBL1127657, “Haloperidol-based irreversible inhibitors of the HIV-1 and HIV-2 proteases” (J Med Chem, 1994)
